Assay [1] is described as follows: Inhibition of bacterial MraY. The arrangement: species or system Bacteria.
Assay [2] deals with Pseudomonas aeruginosa. Nature of the assay: Antibacterial activity against Pseudomonas aeruginosa H103 assessed as reduction in bacterial growth. The format is functional.
The test system of assay [3] is Pseudomonas aeruginosa. In words: Antibacterial activity against Pseudomonas aeruginosa H103 assessed as inhibition of bacterial growth. The class given is functional.
For assay [4], the system named is Escherichia coli. In words: Antibacterial activity against Escherichia coli assessed as inhibition of bacterial growth. The format is functional.
In assay [5] the test system is Staphylococcus aureus. Nature of the assay: Antibacterial activity against Staphylococcus aureus ATCC 29213 assessed as bacterial growth inhibition. The class given is functional.
Assay [6] addresses T1, Phospho-N-acetylmuramoyl-pentapeptide-transferase (Escherichia coli, UniProt E2QF15).
T1 sequence (E2QF15 whole entry): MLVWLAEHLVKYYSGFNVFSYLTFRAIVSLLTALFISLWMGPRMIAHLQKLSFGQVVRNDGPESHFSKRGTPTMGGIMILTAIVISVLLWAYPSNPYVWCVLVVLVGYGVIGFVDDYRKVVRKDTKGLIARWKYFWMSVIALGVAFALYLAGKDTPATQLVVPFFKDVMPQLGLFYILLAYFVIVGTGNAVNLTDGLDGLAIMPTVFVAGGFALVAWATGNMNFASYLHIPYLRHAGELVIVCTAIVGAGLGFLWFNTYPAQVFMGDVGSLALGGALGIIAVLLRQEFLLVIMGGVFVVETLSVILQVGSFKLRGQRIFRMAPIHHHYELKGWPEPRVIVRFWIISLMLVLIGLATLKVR
Nature of the assay: Inhibition of MraY in Escherichia coli.

Values after ≈ are worked out from the molar mass of the structure shown. Residues, ends and D or L forms follow the SMILES beside them.

As a reminder, the IC50 is the midpoint of a concentration-inhibition curve. A higher IC50 goes with weaker potency in that assay. In general, MIC refers to the lowest concentration found to suppress growth.

In the case of `CC[C@H](C)[C@H](NC(=O)[C@H](Cc1c[nH]c2ccccc12)NC(=O)[C@@H](NC(=O)[C@@H](NC(=O)[C@H](CCCNC(=N)N)NC(=O)[C@H](Cc1c[nH]c2ccccc12)NC(=O)[C@H](Cc1c[nH]c2ccccc12)NC(=O)[C@@H](N)CCCNC(=N)N)[C@@H](C)CC)C(C)C)C(=O)N[C@@H](CCCCN)C(=O)N[C@@H](Cc1c[nH]c2ccccc12)C(=O)N[C@@H](Cc1c[nH]c2ccccc12)C(=O)N[C@@H](CCCNC(=N)N)C(=O)O` (H-RWWRIVWIKWWR-OH), half-maximal inhibition in assay [1] (IC50) was put at 40 µM. Besides, the minimum inhibitory concentration (MIC) in assay [2] was 31 µg/mL (≈ 16.6 µM); in assay [3], 31 µg/mL (≈ 16.6 µM); in assay [4] it was 4 µg/mL (≈ 2.14 µM).

As to `CC(C)C[C@H](NC(=O)CNC(=O)[C@H](Cc1c[nH]c2ccccc12)NC(=O)[C@@H](N)CCCNC(=N)N)C(=O)N[C@@H](Cc1c[nH]c2ccccc12)C(=O)O` (H-RWGLW-OH), the IC50 in assay [1] worked out at 590 µM. In addition, the minimum inhibitory concentration (MIC) in assay [5] was 30 µg/mL (≈ 41.9 µM).

`CC[C@@H](C)[C@H](NC(=O)[C@H](CC(C)C)NC(=O)[C@H](CC(C)C)NC(=O)[C@H](CO)NC(=O)[C@@H]1CCCN1C(=O)[C@H](CC(C)C)NC(=O)[C@H](CC(C)C)NC(=O)[C@H](CC(C)C)NC(=O)[C@H](CO)NC(=O)[C@H](CC(C)C)NC(=O)[C@H](CC(C)C)NC(=O)[C@H](CC(C)C)NC(=O)[C@H](CC(C)C)NC(=O)[C@H](Cc1ccccc1)NC(=O)[C@H](C)NC(=O)[C@H](CC(C)C)NC(=O)[C@@H](NC(=O)[C@H](CC(=O)O)NC(=O)[C@H](Cc1c[nH]c2ccccc12)NC(=O)[C@H](CC(C)C)NC(=O)[C@@H](NC(=O)[C@H](Cc1c[nH]c2ccccc12)NC(=O)[C@H](CCCNC(=N)N)NC(=O)[C@@H](NC(=O)[C@@H](N)CCSC)C(C)C)[C@@H](C)O)[C@@H](C)O)C(=O)N[C@@H](CCSC)C(=O)N[C@@H](Cc1ccccc1)C(=O)N[C@H](C(=O)N1CCC[C@H]1C(=O)N[C@@H](CO)C(=O)N[C@H](C(=O)N[C@@H](Cc1ccccc1)C(=O)N[C@@H](CCCCN)C(=O)N[C@@H](CCCNC(=N)N)C(=O)N1CCC[C@H]1C(=O)N[C@H](C(=O)N[C@@H](CO)C(=O)O)C(C)C)[C@@H](C)O)[C@@H](C)CC` gave an IC50 in assay [6] of 0.8 µM.
